This is an account of results in patent publication US20060216330A1, “Peptides having an ace inhibiting effect” (priority 2003, published 2006).

The test system of series [1] is spontaneously hypertensive rats. To be noted: Abubakar et al., 1998; cited from earlier work.
A further series deals with ACE (Homo sapiens, UniProt P12821). Nature of the series: ACE activity measurement with fluorogenic substrate Abz-FRK(Dnp)P-OH.
Series [2] in a line: In vitro gastro-intestinal digestion of Biozate (artificial human gastro intestinal tract).
Procedure: The stability of peptides in the human gastro-intestinal tract was studied by subjecting Biozate™ to typical conditions in the stomach and small intestine. Gastric conditions were mimicked by dissolving 5.0 g Biozate™, 2.1 g NaCl, 0.1 g NaH2PO4, 0.45 g lipase and 2.9 g pepsin in 900 mL of Millipore Q water. The fluid was adjusted to pH 3.5 with HCl, stirred with a peddle (50 rpm) and kept at 37° C. for 60 min. Subsequently, intestinal conditions were mimicked by adding 9.0 g pancreatin to the simulated gastric fluid and adjusting the pH to 6.8 with NaHCO3. The simulated intestinal fluid was incubated at 37° C. and continuous stirring (50 rpm) for 120 min. Samples were collected at different time points during the in vitro gastro-intestinal digestion. After collection, samples were directly heated at 95° C. for 30 min and subsequently stored at −20° C.
At certain times samples were taken from the GIT model system.

Like-named read-outs stand apart in the source and are kept apart here. Ends that are not written are not given here. Peptide text beside a SMILES is read from it.

Sequence of ACE (P12821 30-1306, species assumed): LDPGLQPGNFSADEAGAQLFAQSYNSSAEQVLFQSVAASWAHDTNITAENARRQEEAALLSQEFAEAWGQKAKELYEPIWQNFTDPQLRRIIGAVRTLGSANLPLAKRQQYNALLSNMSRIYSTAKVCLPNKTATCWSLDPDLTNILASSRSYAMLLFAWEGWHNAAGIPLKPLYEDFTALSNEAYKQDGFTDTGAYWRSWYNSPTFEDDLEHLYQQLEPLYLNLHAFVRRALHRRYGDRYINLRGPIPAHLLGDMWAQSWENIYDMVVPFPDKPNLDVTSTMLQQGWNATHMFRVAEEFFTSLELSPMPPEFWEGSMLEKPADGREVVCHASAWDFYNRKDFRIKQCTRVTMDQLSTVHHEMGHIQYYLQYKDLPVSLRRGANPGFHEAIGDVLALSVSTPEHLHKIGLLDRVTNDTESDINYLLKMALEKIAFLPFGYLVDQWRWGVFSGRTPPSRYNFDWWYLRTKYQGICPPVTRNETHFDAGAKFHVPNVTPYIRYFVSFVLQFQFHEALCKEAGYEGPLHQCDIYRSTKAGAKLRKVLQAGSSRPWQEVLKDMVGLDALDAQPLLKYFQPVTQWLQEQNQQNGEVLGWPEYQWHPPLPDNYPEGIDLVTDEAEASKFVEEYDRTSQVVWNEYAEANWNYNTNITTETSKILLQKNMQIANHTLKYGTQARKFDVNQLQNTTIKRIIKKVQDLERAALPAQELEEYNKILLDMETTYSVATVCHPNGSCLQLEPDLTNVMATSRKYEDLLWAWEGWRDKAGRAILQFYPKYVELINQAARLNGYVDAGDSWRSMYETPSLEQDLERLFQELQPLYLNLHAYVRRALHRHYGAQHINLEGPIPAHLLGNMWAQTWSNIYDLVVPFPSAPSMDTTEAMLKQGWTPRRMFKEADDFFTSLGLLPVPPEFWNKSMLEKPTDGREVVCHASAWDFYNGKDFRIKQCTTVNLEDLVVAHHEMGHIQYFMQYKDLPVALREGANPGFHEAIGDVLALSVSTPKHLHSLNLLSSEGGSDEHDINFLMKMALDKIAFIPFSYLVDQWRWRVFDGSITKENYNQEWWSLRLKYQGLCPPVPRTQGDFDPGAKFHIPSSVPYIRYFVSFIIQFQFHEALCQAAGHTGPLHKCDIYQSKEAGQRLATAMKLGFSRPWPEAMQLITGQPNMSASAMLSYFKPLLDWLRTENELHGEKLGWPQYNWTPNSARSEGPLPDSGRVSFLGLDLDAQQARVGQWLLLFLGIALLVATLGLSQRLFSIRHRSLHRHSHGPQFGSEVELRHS
Procedure for ACE: ACE activity with the fluorogenic substrate Abz-FRK(Dnp)P—OH was monitored in 0.1 M Tris buffer pH 7.0, containing 100 mM NaCl. […] The ACE activity was continuously followed in a Fluostar (BMG) fluorometer with 2 dispensers by measuring the fluorescence at λex: 320 nm and λem: 420 nm.

In the case of `CC[C@H](C)[C@H](N)C(=O)N1CCC[C@H]1C(=O)N[C@@H](C)C(=O)O` [IPA] (H-Ile-Pro-Ala-OH; N-terminus and C-terminus assumed), the antihypertensive activity entry in series [1] is given as “has antihypertensive activity”. On ACE, this compound gave a half-maximal inhibitory concentration (IC50) of 50 µM. Also, in series [2] (Biozate original solution before digestion), the “Concentration, Original solution” value came out at 0 ng/mL. For the same compound, in series [2] (t = 0 min, simulated gastric fluid pH 3.5, 37° C.), the “Concentration, t = 0 min” value was 0 ng/mL. Besides, the “Concentration, t = 60 min” value in series [2] (t = 60 min, end of gastric phase) was 0 ng/mL. In series [2] (t = 65 min, simulated intestinal fluid (pancreatin, pH 6.8)), the “Concentration, t = 65 min” value was 9000 ng/mL. Besides, the “Concentration, t = 75 min” value in series [2] (t = 75 min, simulated intestinal fluid) is 9000 ng/mL. Also, the “Concentration, t = 90 min” value in series [2] (t = 90 min, simulated intestinal fluid) was 9000 ng/mL. Also, the “Concentration, t = 120 min” value in series [2] (t = 120 min, simulated intestinal fluid) is 9000 ng/mL. Moreover, the “Concentration, t = 150 min” value in series [2] (t = 150 min, simulated intestinal fluid) is 14000 ng/mL. Further, the “Concentration, t = 180 min” value in series [2] (t = 180 min, simulated intestinal fluid) was 17000 ng/mL.

IPAVFK [IPAVFK] came in with an IC50 on ACE of 120 µM. The “Concentration, t = 0 min” value (pH 3.5) is 26000 ng/mL. Besides, under “pH 6.8”, the “Concentration, t = 65 min” value was 3000 ng/mL.

As usually defined, the IC50 is the point on the concentration scale where inhibition reaches its midpoint. Read a high IC50 as weaker potency.
